Key:
Format in all cases: cell-based
THR alpha = molecular target: T1, THR alpha (Homo sapiens, UniProt P10827); test: HEK293T THR alpha/RXR luciferase reporter assay (Assay 2); conditions: Assay 2; for Emax: HEK-293T, Table 5, THRα, read-out: Activity category Assay 2 THRα (Emax); for EC50: Table 4, THR-alpha, read-out: Activity category Assay 2 (EC50, THR-alpha agonist activity)
T1 construct: expressed in transfected cells; host or cells: HEK293T (ATCC CRL-3216)
T1 sequence (P10827 1-410 isoform P10827-2): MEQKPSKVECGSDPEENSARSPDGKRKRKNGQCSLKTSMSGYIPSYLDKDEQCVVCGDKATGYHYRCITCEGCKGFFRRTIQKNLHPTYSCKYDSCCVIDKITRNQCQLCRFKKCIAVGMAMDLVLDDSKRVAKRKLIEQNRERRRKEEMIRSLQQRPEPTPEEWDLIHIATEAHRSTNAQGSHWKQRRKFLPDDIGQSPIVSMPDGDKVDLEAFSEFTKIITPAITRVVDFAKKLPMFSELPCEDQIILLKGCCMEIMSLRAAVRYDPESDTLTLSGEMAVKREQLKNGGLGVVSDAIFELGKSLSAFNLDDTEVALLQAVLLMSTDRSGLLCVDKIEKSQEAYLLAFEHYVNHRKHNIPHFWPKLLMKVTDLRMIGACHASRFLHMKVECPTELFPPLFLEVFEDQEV
T1 sequence (P19793 1-462 partner): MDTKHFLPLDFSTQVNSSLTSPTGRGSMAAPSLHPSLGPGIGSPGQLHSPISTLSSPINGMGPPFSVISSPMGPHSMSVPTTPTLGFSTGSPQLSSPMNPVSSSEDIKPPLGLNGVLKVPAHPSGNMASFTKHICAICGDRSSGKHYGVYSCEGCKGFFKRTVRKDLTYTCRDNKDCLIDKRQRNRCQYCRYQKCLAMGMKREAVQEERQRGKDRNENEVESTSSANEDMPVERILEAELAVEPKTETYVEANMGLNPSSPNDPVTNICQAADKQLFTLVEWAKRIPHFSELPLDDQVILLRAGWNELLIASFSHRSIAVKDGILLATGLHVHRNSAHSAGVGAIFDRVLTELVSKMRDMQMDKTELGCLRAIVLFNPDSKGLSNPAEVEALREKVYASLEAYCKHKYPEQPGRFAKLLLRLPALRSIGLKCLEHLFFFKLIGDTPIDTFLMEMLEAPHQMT
Method in brief: (§1)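 HEK293T cells transiently transfected with TRE-luciferase reporter, RXR, and THR alpha or THR beta plasmid; ten five-fold compound dilutions from DMSO added for 18-24 h. One-Glo luminescence read; percent agonism normalized between negative and positive controls.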

[1] = test system: CPT1A gene expression in Huh-7 cells; test: Huh-7 differential gene expression, CPT1A RT-qPCR (Assay 3); conditions: Homo sapiens, Huh-7, 24 h, Table 6, Huh-7 cells, CPT1A, 24 hr treatment; for EC50: read-out: Activity category Assay 3 EC50; for Emax: read-out: Activity category Assay 3 Emax
Experimental: Huh-7 Differential Gene Expression (Assay 3)
Fetal bovine serum (FBS) was incubated with washed resin (50 mg resin/mL FBS; resin weight is dry weight of resin prior to washing) for 5 hr at room temperature on a rotor. The FBS was separated from the resin via centrifugation and incubated with new, washed resin for 18 h at room temperature on a rotor.
Cell Culture and Drug Treatment
Huh-7 cells were cultured in DMEM (10-013-CM, Corning) supplemented with 10% FBS and 1% Pen-Strep at 37° C. under 5% C02. When 70-80% confluence was reached, the cells were removed by trypsinization. The medium was aspirated from the cell culture dish, the cell monolayer was washed with 1×PBS, and 0.05% trypsin, 0.53 mM EDTA (25-052-CV, Corning) solution was added to the dish. After 3 min incubation, the cells were detached completely by repeatedly pipetting solution onto the monolayer. Equal volume of DMEM supplemented with 10% rFBS and 1% Pen-Strep (TH-depleted DMEM) was added to the dish to inactivate the trypsin. The cell suspension was centrifuged at 350×g at room temperature for 3 min. The supernatant was aspirated out and the cell pellet was resuspended in TH-depleted DMEM. […] After 24 hr incubation, the media was replaced with treatment media. All compounds were serially diluted in DMSO and final concentrations were reached by dilution in TH-depleted DMEM (0.1% DMSO). The cells were incubated in treatment media for 24 hr. Treatments were performed in biological duplicates.
After 24 hr in treatment media, the cells were lysed directly on the culture plates and cDNA was produced using the TaqMan™ Fast Advanced Cells-to-CT™ Kit (A35374, Invitrogen) and following the manufacturer's protocol. RT-qPCR for CPT1A (Hs00912671_m1) and two housekeeping genes, ACTB (Hs01060665_g1) and TFG (Hs02832013_g1), was performed using TaqMan™ Fast Advanced Master Mix. RT-qPCR reactions were run on the qTOWER^3 84 G (Analytik Jena) in technical duplicates.
ΔRn values were obtained from the qPCRsoft384 1.0 software and CPT1A gene expression was quantified via the 2-ΔΔCt method. Dose-response curves were generated using GraphPad Prism 8 using four parameter logistic equation without top constraint to derive EC50 and Emax.

THR beta = molecular target: T2, THR beta (Homo sapiens, UniProt P10828); test: HEK293T THR beta/RXR luciferase reporter assay (Assay 2); conditions: for Emax: HEK-293T, Table 5, Assay 2, THRβ, read-out: Activity category Assay 2 THRβ (Emax); for EC50: THR-beta, HEK293T reporter assay, read-out: Activity category Assay 2 (EC50, THR-beta agonist)
T2 construct: expressed in transfected cells; host or cells: HEK293T (ATCC CRL-3216)
T2 sequence (P10828 1-461): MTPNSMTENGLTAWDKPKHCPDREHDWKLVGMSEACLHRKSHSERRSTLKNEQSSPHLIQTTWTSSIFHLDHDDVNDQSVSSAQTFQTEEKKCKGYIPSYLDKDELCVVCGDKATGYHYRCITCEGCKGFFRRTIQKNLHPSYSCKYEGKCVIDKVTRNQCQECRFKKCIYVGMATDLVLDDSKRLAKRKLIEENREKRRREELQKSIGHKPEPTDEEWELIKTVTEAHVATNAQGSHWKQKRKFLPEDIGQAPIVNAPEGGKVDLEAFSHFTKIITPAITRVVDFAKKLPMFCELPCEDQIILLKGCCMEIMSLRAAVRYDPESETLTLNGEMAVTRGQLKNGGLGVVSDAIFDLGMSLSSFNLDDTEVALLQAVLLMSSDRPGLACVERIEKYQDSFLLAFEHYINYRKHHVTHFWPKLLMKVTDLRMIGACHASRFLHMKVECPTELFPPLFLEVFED
T2 sequence (P19793 1-462 partner): T1 sequence (P19793 1-462 partner)
Method in brief: as §1

Compound	Emax (THR alpha) [%]	EC50 (THR alpha) [nM]	EC50 [1] [nM]	Emax [1] [%]	Emax (THR beta) [%]	EC50 (THR beta) [nM]
CC(C)c1c[nH]c2nnc(Oc3c(Cl)cc(-n4nc(C#N)c(=O)[nH]c4=O)cc3Cl)cc12 [Compound 52, 2-[3,5-dichloro-4-([5-isopropyl-7H-pyrrolo[2,3-c]pyridazin-3-yl]oxy)phenyl]-3,5-dioxo-4H-1,2,4-triazine-6-carbonitrile]	50 to 75	> 10000	> 100	> 75	> 75	> 10000
Cc1cc(-n2ncc(=O)[nH]c2=O)cc(C)c1Cc1ccc2[nH]cc(C(C)C)c2n1 [Compound 54, 2-[4-[(3-isopropyl-1H-pyrrolo[3,2-b]pyridine-5-yl)methyl]-3,5-dimethyl-phenyl]-1,2,4-triazine-3,5-dione]	50 to 75	< 50	< 100	> 75	> 75	< 50
Cc1cc(-n2nc(N)c(=O)[nH]c2=O)cc(C)c1Cc1ccc2[nH]cc(C(C)C)c2n1 [Compound 55, 6-amino-2-[4-[(3-isopropyl-1H-pyrrolo[3,2-b]pyridin-5-yl)methyl]-3,5-dimethyl-phenyl]-1,2,4-triazine-3,5-dione]	> 75	50 to 250	< 100	> 75	> 75	< 50
Nc1nn(-c2cc(Cl)c(Oc3cc(-c4ccc5ccccc5c4)c(=O)[nH]n3)c(Cl)c2)c(=O)[nH]c1=O [Compound 67, 6-amino-2-(3,5-dichloro-4-[[5-(naphthalen-2-yl)-6-oxo-1H-pyridazin-3-yl]oxy]phenyl)-4H-1,2,4-triazine-3,5-dione]	< 50	> 10000	> 100	> 75	50 to 75	50 to 250
Nc1nn(-c2cc(Cl)c(Oc3n[nH]c(=O)cc3-c3ccc4ccccc4c3)c(Cl)c2)c(=O)[nH]c1=O [Compound 67-A, 6-amino-2-(3,5-dichloro-4-((4-(naphthalen-2-yl)-6-oxo-1,6-dihydropyridazin-3-yl)oxy)phenyl)-1,2,4-triazine-3,5(2H,4H)-dione]	< 50	1000 to 10000	100 to 1000	< 50	< 50	
Cc1cccc(-c2cc(Oc3c(Cl)cc(-n4nc(N)c(=O)[nH]c4=O)cc3Cl)n[nH]c2=O)c1 [Compound 70, 6-Amino-2-(3,5-dichloro-4-((6-oxo-5-(m-tolyl)-1,6-dihydropyridazin-3-yl)oxy)phenyl)-1,2,4-triazine-3,5(2H,4H)-dione]	50 to 75	50 to 250	< 100	50 to 75	> 75	< 50
Nc1nn(-c2cc(Cl)c(Oc3cc(-c4ccc5c(c4)CCCC5)c(=O)[nH]n3)c(Cl)c2)c(=O)[nH]c1=O [Compound 72, 6-Amino-2-(3,5-dichloro-4-((6-oxo-5-(5,6,7,8-tetrahydro-naphthalen-2-yl)-1,6-dihydro-pyridazin-3-yl)oxy)phenyl)-1,2,4-triazine-3,5(2H,4H)-dione]	< 50	> 10000	100 to 1000	> 75	50 to 75	50 to 250
Nc1nn(-c2cc(Cl)c(Oc3n[nH]c(=O)cc3-c3ccc4c(c3)CCCC4)c(Cl)c2)c(=O)[nH]c1=O [Compound 72-A, 6-amino-2-(3,5-dichloro-4-[[6-oxo-4-(5,6,7,8-tetrahydronaphthalen-2-yl)-1H-pyridazin-3-yl]oxy]phenyl)-4H-1,2,4-triazine-3,5-dione]	< 50	> 10000	100 to 1000	> 75	50 to 75	50 to 250
CC(C)c1n[nH]c2nnc(Oc3c(Cl)cc(-n4nc(C#N)c(=O)[nH]c4=O)cc3Cl)cc12 [Compound 75A, 2-(3,5-Dichloro-4-((3-isopropyl-1H-pyrazolo[3,4-c]pyridazin-5-yl)oxy)phenyl)-3,5-dioxo-2,3,4,5-tetrahydro-1,2,4-triazine-6-carbonitrile]	< 50	> 10000	> 100	> 75	50 to 75	
Nc1nn(-c2cc(Cl)c(Oc3ccc4c(c3)C3(CCCC3)C(=O)N4)c(Cl)c2)c(=O)[nH]c1=O [Compound 83]	> 75	< 50	< 100	> 75	50 to 75	< 50
CC1(C)CC(c2cc(Oc3c(Cl)cc(-n4nc(N)c(=O)[nH]c4=O)cc3Cl)n[nH]c2=O)C1 [Compound 89, 6-Amino-2-(3,5-dichloro-4-((5-(3,3-dimethylcyclobutyl)-6-oxo-1,6-dihydropyridazin-3-yl)oxy)phenyl)-1,2,4-triazine-3,5(2H,4H)-dione]	< 50	1000 to 10000	100 to 1000	> 75	50 to 75	
Cc1cc(-n2nc(C#N)c(=O)[nH]c2=O)cc(C)c1Cc1ccc2[nH]c(=O)cc(C(C)C)c2c1 [Compound 90, 2-(4-((4-Isopropyl-2-oxo-1,2-dihydroquinolin-6-yl)methyl)-3,5-dimethylphenyl)-3,5-dioxo-2,3,4,5-tetrahydro-1,2,4-triazine-6-carbonitrile]	< 50	> 10000	> 100	50 to 75	50 to 75	> 10000
Nc1nn(-c2cc(Cl)c(Oc3cc(C4CC5(CC5)C4)c(=O)[nH]n3)c(Cl)c2)c(=O)[nH]c1=O [Compound 93]	< 50	1000 to 10000	< 100	50 to 75	50 to 75	250 to 1000
Nc1nn(-c2cc(Cl)c(Oc3cc(C4CC5(CCC5)C4)c(=O)[nH]n3)c(Cl)c2)c(=O)[nH]c1=O [Compound 94]	< 50	1000 to 10000	100 to 1000	50 to 75	50 to 75	50 to 250
